Measurements taken from patent US20140296164A1, “Compositions and methods of use for cell targeted inhibitors of the Cystic Fibrosis transmembrane regulator associated ligand” (CALISTA THERAPEUTICS, INC., priority 2013, published 2014).
Entries after “also recorded” stand apart in the source; their conditions may differ. No end group written: not given here.

Legend:
deltaF508-CFTR [1] = experiment: CFTR agonist evoked short circuit (ISC) current, Ussing epithelial voltage clamp; format: cell-based, human; details: for summed ISC currents compared with Vehicle treatment: apical, one day at 27° C., CFFT006F cells, Dunnett's test
Text: To test for bioeffectiveness, for our exemplary invention to stabilize CFTR, we measured the chloride transport function homozygous deltaF508-CFTR cystic fibrosis human bronchial epithelial cells grown and differentiated on Snapwell™ filter inserts as CFTR agonist evoked short circuit (ISC) current. The ISC was the output of an Ussing epithelial voltage clamp apparatus after amiloride block of sodium current through the epithelial sodium channel (ENaC). ENaC current was monitored as the amiloride sensitive current component of the ISC. The objective of this study was to measure the ability of various compounds, including but limited to CT002, CT008, CT003, CT004, CT005, CT006, CT007, and AT0011 (peptide control), to restore function to defective deltaF508-CFTR in CFhBE cell monolayers (epithelia) after a one day incubation period on the apical surface of the epithelia. See FIG. 4 for sequences and ID numbers.
(§1) CT003, CT004, CT005, CT006, CT007, and AT0011 were combined with the known corrector VX-809. CT002 (WQVTRV) was incubated with 10 μL of the cell permeability enhancing reagent BioPORTER™. Statistical comparisons were made using Dunnett's test and Student's t-test with significance evaluated at P<0.05. The ISC current polarity convention used here records apical to basolateral sodium current and basolateral to apical chloride current as negative.
Referring now to the drawings, a first exemplary embodiment is illustrated and generally indicated in FIGS. 1, 2 and 3, which is the measurement of the chloride transport function of homozygous deltaF508-CFTR cystic fibrosis human bronchial epithelial cells grown and differentiated on Snapwell™ filter inserts as CFTR agonist evoked short circuit (ISC) current. The ISC was the output of an Ussing epithelial voltage clamp apparatus after amiloride block of sodium current through the epithelial sodium channel (ENaC). ENaC current was monitored as the amiloride sensitive current component of the ISC. The objective of this study was to measure the ability of candidate Test Articles and controls (CT002 (WQVTRV+BIOPORTER), CT008 (WQVTRV alone), CT003, CT004, CT005, CT006, CT007, and AT0011 control) to restore function to defective deltaF508-CFTR in CFhBE cell monolayers (epithelia) after a one day incubation period on the apical surface of the epithelia. These peptide compounds differed in their amino acid sequence to optimize solubility, intracellular permeability, stability and toxicity (CT003-CT007 shown here). The control peptides were non-optimized sequences (CT002 and CT008) and an off-target peptide control (AT0011).
as §1, with “VX-809 and” for “VX-809.”, “CT002” for “CT002 (WQVTRV)”, “used” for “used here”
All incubations were performed at 27±0.5° C. Test Articles were applied at their final concentrations to the apical surface of the cellular monolayers in 200 μL of Opti-MEM Reduced Serum Medium without addition of serum. […] Test Article incubations were approximately 24 hours. 150 μL of cycloheximide (20 μg/mL) was applied to the apical surface of the epithelia for the final 2 hours of peptide treatment, total volume 350 μL. Cycloheximide prevented new protein synthesis that might be otherwise conflated with test article efficacy. This incubation protocol mimics the dilution and clearance effect that will be encountered by topical delivery to the lungs. Test articles are applied at t=0 h, 10 μM in 200 μL, to the apical surface. 2000 μL of basolateral medium provides an immediate dilution effect (test article: 0.91 μM), then at t=22 h, a further […] of cycloheximide containing solution is further added, (test article: 0.85 μM). […]

deltaF508-CFTR [2] = details: cited from earlier work
[3] = test system: epithelial sodium channel (ENaC); experiment: Amiloride sensitive sodium current component of the ISC, Ussing assay; format: cell-based, human; details: Test Article 10 uM + VX-809 1 uM, Student's test
Text: To test for bioeffectiveness, for our exemplary invention to stabilize CFTR, we measured the chloride transport function homozygous deltaF508-CFTR cystic fibrosis human bronchial epithelial cells grown and differentiated on Snapwell™ filter inserts as CFTR agonist evoked short circuit (ISC) current. The ISC was the output of an Ussing epithelial voltage clamp apparatus after amiloride block of sodium current through the epithelial sodium channel (ENaC). ENaC current was monitored as the amiloride sensitive current component of the ISC. […]
Referring now to the drawings, a first exemplary embodiment is illustrated and generally indicated in FIGS. 1, 2 and 3, which is the measurement of the chloride transport function of homozygous deltaF508-CFTR cystic fibrosis human bronchial epithelial cells grown and differentiated on Snapwell™ filter inserts as CFTR agonist evoked short circuit (ISC) current. […] ENaC current was monitored as the amiloride sensitive current component of the ISC. […]
Ussing Assay: All Ussing assays were performed at 27±0.5° C. and lasted for approximately 1 hour 40 minutes. The temperature was monitored throughout the experiment using a thermistor probe connected to the data acquisition system and inserted into the bath solution of one chamber. […]

[4] = Solubility of peptide sequences; format: physicochemical
[5] = Test Article 10 uM + VX-809 1 uM, Student's t-test

Cc1ccc(NC(=O)C2(c3ccc4c(c3)OC(F)(F)O4)CC2)nc1-c1cccc(C(=O)O)c1 [VX-809, reference compound]
summed ISC currents compared with Vehicle treatment (deltaF508-CFTR [1]; VX-809 1 μM alone): significantly above Vehicle treatment | summed ISC currents compared with expected level (deltaF508-CFTR [1]; VX-809 1 μM, apical incubation only, not in basolateral media): less than the expected level

ANSRWPTSII
function without BIOPORTER (deltaF508-CFTR [2]): neither sequence functions

Acety-YGRKKRRQRRR-glycoyl-WQVTRV-amide (Ac-YGRKKRRQRRR; not fully specified (C-terminus)) [CT007]
lower concentration needed versus prior sequences with BIOPORTER (deltaF508-CFTR [1]; 10 μM CT007 vs 500 μM WQVTRV): > 50 times | improvement in reported efficacy versus WQVTRV and ANSRWPTSII with BIOPORTER (deltaF508-CFTR [1]; 10 uM vs 500 μM, at least): fifty-fold | additive efficacy to VX-809 (deltaF508-CFTR [1]; CT007 10 uM + VX-809 1 uM, CF bronchial epithelium, n=4): 36% | response to CFTRinh-172 compared with VX-809 1 uM (deltaF508-CFTR [1]; [5]): significantly increased | summed ISC currents (CFTR chloride current restoration) compared with VX-809 1 μM treatment (deltaF508-CFTR [1]; [5]): significantly greater; also recorded: significantly above VX-809 1 μM treatment | summed ISC currents compared with Vehicle treatment (deltaF508-CFTR [1]; Test Article 10 uM + VX-809 1 uM): significantly above Vehicle treatment | duration of therapeutic drug action (deltaF508-CFTR [1]; after transient topical apical dosing, test article removed before Ussing assay): at least 26 hours | amiloride sensitive sodium current generated by ENaC compared to VX-809 alone [3]: significantly increased

WQVTRV [CT008, WQVTRV]
solubility at the effective concentration ([4]; 500 μM): largely insoluble | solubility in water ([4]; water / aqueous fluids): insoluble in water
